From paper PMC6352943, “Novel pyrazolo[3,4-d]pyrimidines: design, synthesis, anticancer activity, dual EGFR/ErbB2 receptor tyrosine kinases inhibitory activity, effects on cell cycle profile and caspase-3-mediated apoptosis” (Journal of Enzyme Inhibition and Medicinal Chemistry, 2019)

Experiments:
Experiment in all cases: NCI 60 cell line single dose screen (SRB)
Format in all cases: cell-based
NCI-H23 = details: Homo sapiens; NCI-H23 (non-small cell lung cancer), single dose 10^−5 M, 48 h; read-out: Growth inhibition percentage
In short: (§1)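 Cells were plated and grown 24 h at 37 °C, 5% CO2 before compound addition from DMSO stock, then exposed 48 h. Adherent cells were fixed with cold TCA (final 10%) and suspension cells with 16% TCA. SRB-stained protein was read at 515 nm and percent growth was calculated against time-zero and untreated plates.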

HS 578T = details: Homo sapiens; HS 578T (breast cancer), single dose 10^−5 M, 48 h; read-out: Growth inhibition percentage
In short: as §1

OVCAR-4 = details: Homo sapiens; OVCAR-4 (ovarian cancer), single dose 10^−5 M, 48 h; read-out: Growth inhibition percentage
In short: as §1

RPMI-8226 = details: Homo sapiens; RPMI-8226 (leukemia), single dose 10^−5 M, 48 h; read-out: Growth inhibition percentage
In short: as §1

SF-295 = details: Homo sapiens; SF-295 (CNS cancer), single dose 10^−5 M, 48 h; read-out: Growth inhibition percentage
In short: as §1

M14 = details: Homo sapiens; M14 (melanoma), single dose 10^−5 M, 48 h; read-out: Growth inhibition percentage
In short: as §1

A549/ATCC = details: Homo sapiens; A549/ATCC (non-small cell lung cancer), single dose 10^−5 M, 48 h; read-out: Growth inhibition percentage
In short: as §1

MCF7 = details: Homo sapiens; MCF7 (breast cancer), single dose 10^−5 M, 48 h; read-out: Growth inhibition percentage
In short: as §1

PC-3 = details: Homo sapiens; PC-3 (prostate cancer), single dose 10^−5 M, 48 h; read-out: Growth inhibition percentage
In short: as §1

HCT-15 = details: Homo sapiens; HCT-15 (colon cancer), single dose 10^−5 M, 48 h; read-out: Growth inhibition percentage
In short: as §1

HL-60(TB) = details: Homo sapiens; HL-60(TB) (leukemia), single dose 10^−5 M, 48 h; read-out: Growth inhibition percentage
In short: as §1

MALME-3M = details: Homo sapiens; MALME-3M (melanoma), single dose 10^−5 M, 48 h; read-out: Growth inhibition percentage
In short: as §1

SK-MEL-2 = details: Homo sapiens; SK-MEL-2 (melanoma), single dose 10^−5 M, 48 h; read-out: Growth inhibition percentage
In short: as §1

COLO 205 = details: Homo sapiens, COLO 205, 48 h; read-out: Growth inhibition percentage
In short: as §1

SNB-19 = details: Homo sapiens; SNB-19 (CNS cancer), single dose 10^−5 M, 48 h; read-out: Growth inhibition percentage
In short: as §1

ACHN = details: Homo sapiens; ACHN (renal cancer), single dose 10^−5 M, 48 h; read-out: Growth inhibition percentage
In short: as §1

CCRF-CEM = details: Homo sapiens; CCRF-CEM (leukemia), single dose 10^−5 M, 48 h; read-out: Growth inhibition percentage
In short: as §1

HCC-2998 = details: Homo sapiens; HCC-2998 (colon cancer), single dose 10^−5 M, 48 h; read-out: Growth inhibition percentage
In short: as §1

OVCAR-5 = details: Homo sapiens; OVCAR-5 (ovarian cancer), single dose 10^−5 M, 48 h; read-out: Growth inhibition percentage
In short: as §1

SF-268 = details: Homo sapiens; SF-268 (CNS cancer), single dose 10^−5 M, 48 h; read-out: Growth inhibition percentage
In short: as §1

HCT-116 = details: Homo sapiens; HCT-116 (colon cancer), single dose 10^−5 M, 48 h; read-out: Growth inhibition percentage
In short: as §1

Cc1nn(-c2ccc(F)cc2)c2ncnc(N3CCOCC3)c12 [Compound 8a, 1–(4-Fluorophenyl)-3-methyl-4-morpholino-1H-pyrazolo[3,4-d]pyrimidine]
inhibition at 10 µM (NCI-H23): 0.28%
inhibition at 10 µM (HS 578T): -4.78%
inhibition at 10 µM (OVCAR-4): -10.7%
inhibition at 10 µM (RPMI-8226): 2%
inhibition at 10 µM (SF-295): 0.61%
inhibition at 10 µM (M14): -4.47%
inhibition at 10 µM (A549/ATCC): -0.09%
inhibition at 10 µM (MCF7): 9.07%
inhibition at 10 µM (PC-3): 5.06%
inhibition at 10 µM (HCT-15): -2.04%
inhibition at 10 µM (HL-60(TB)): 22.5%
inhibition at 10 µM (MALME-3M): -10.5%
inhibition at 10 µM (SK-MEL-2): 1.49%
inhibition at 10 µM (COLO 205): -7.19%
inhibition at 10 µM (SNB-19): 5.14%
inhibition at 10 µM (ACHN): -10.3%
inhibition at 10 µM (CCRF-CEM): 2.31%
inhibition at 10 µM (HCC-2998): 2.41%
inhibition at 10 µM (OVCAR-5): -3.95%
inhibition at 10 µM (SF-268): -0.79%
inhibition at 10 µM (HCT-116): -7.69%

Cc1nn(-c2ccc(F)cc2)c2nc(N)nc(N)c12 [Compound 5, 1–(4-Fluorophenyl)-3-methyl-1H-pyrazolo[3,4-d]pyrimidine-4,6-diamine]
inhibition at 10 µM (NCI-H23): 11.8%
inhibition at 10 µM (HS 578T): -3.27%
inhibition at 10 µM (OVCAR-4): 1.28%
inhibition at 10 µM (RPMI-8226): -3.69%
inhibition at 10 µM (SF-295): -1.89%
inhibition at 10 µM (M14): -2.93%
inhibition at 10 µM (A549/ATCC): -1.96%
inhibition at 10 µM (MCF7): 0.73%
inhibition at 10 µM (PC-3): 3.59%
inhibition at 10 µM (HCT-15): -3.69%
inhibition at 10 µM (HL-60(TB)): 8.85%
inhibition at 10 µM (MALME-3M): -7.8%
inhibition at 10 µM (SK-MEL-2): 3.86%
inhibition at 10 µM (COLO 205): -13.5%
inhibition at 10 µM (SNB-19): -7.94%
inhibition at 10 µM (ACHN): -3.79%
inhibition at 10 µM (CCRF-CEM): -16.8%
inhibition at 10 µM (HCC-2998): 3.79%
inhibition at 10 µM (OVCAR-5): -1.61%
inhibition at 10 µM (SF-268): -2.3%
inhibition at 10 µM (HCT-116): -2.75%

Cc1nn(-c2ccc(F)cc2)c2nc[nH]c(=O)c12 [Compound 3, 1–(4-Fluorophenyl)-3-methyl-1H-pyrazolo[3,4-d]pyrimidin-4(5H)-one]
inhibition at 10 µM (NCI-H23): 4.09%
inhibition at 10 µM (HS 578T): 0.13%
inhibition at 10 µM (OVCAR-4): -8.19%
inhibition at 10 µM (RPMI-8226): -10.2%
inhibition at 10 µM (SF-295): -4.14%
inhibition at 10 µM (M14): -7.65%
inhibition at 10 µM (A549/ATCC): -2.93%
inhibition at 10 µM (MCF7): 2.7%
inhibition at 10 µM (PC-3): 1.46%
inhibition at 10 µM (HCT-15): -6.88%
inhibition at 10 µM (HL-60(TB)): 6.74%
inhibition at 10 µM (MALME-3M): -8.22%
inhibition at 10 µM (SK-MEL-2): -5.1%
inhibition at 10 µM (COLO 205): -14.9%
inhibition at 10 µM (SNB-19): -3.69%
inhibition at 10 µM (ACHN): -4.68%
inhibition at 10 µM (CCRF-CEM): -1.13%
inhibition at 10 µM (HCC-2998): -2.16%
inhibition at 10 µM (OVCAR-5): -10.4%
inhibition at 10 µM (SF-268): -1.71%
inhibition at 10 µM (HCT-116): -1.64%

Cc1nn(-c2ccc(F)cc2)c2ncnc(N)c12 [Compound 4, 1–(4-Fluorophenyl)-3-methyl-1H-pyrazolo[3,4-d]pyrimidin-4-amine]
inhibition at 10 µM (NCI-H23): 4.73%
inhibition at 10 µM (HS 578T): -4.94%
inhibition at 10 µM (OVCAR-4): -4.38%
inhibition at 10 µM (RPMI-8226): -17.5%
inhibition at 10 µM (SF-295): -3.53%
inhibition at 10 µM (M14): -3.62%
inhibition at 10 µM (A549/ATCC): -4.88%
inhibition at 10 µM (MCF7): 9.82%
inhibition at 10 µM (PC-3): 1.03%
inhibition at 10 µM (HCT-15): -4.62%
inhibition at 10 µM (HL-60(TB)): 7.87%
inhibition at 10 µM (MALME-3M): 5.86%
inhibition at 10 µM (SK-MEL-2): 1.74%
inhibition at 10 µM (COLO 205): -18.4%
inhibition at 10 µM (SNB-19): -9.19%
inhibition at 10 µM (ACHN): 0.98%
inhibition at 10 µM (CCRF-CEM): -12.7%
inhibition at 10 µM (HCC-2998): -2.52%
inhibition at 10 µM (OVCAR-5): -4.61%
inhibition at 10 µM (SF-268): 3.71%
inhibition at 10 µM (HCT-116): -8.66%

Cc1ccc(Nc2ncnc3c2c(C)nn3-c2ccc(F)cc2)cc1 [Compound 7c, 1–(4-Fluorophenyl)-3-methyl-N-(p-tolyl)-1H-pyrazolo[3,4-d]-pyrimidin-4-amine]
inhibition at 10 µM (NCI-H23): 4.63%
inhibition at 10 µM (HS 578T): 0.7%
inhibition at 10 µM (OVCAR-4): -3.91%
inhibition at 10 µM (RPMI-8226): -4.47%
inhibition at 10 µM (SF-295): -3.83%
inhibition at 10 µM (M14): 0.75%
inhibition at 10 µM (A549/ATCC): 3.08%
inhibition at 10 µM (MCF7): 6.19%
inhibition at 10 µM (PC-3): 7.23%
inhibition at 10 µM (HCT-15): -0.49%
inhibition at 10 µM (HL-60(TB)): 16%
inhibition at 10 µM (MALME-3M): 1.7%
inhibition at 10 µM (SK-MEL-2): 10.9%
inhibition at 10 µM (COLO 205): -13.3%
inhibition at 10 µM (SNB-19): 7.21%
inhibition at 10 µM (ACHN): -12.2%
inhibition at 10 µM (CCRF-CEM): -8.18%
inhibition at 10 µM (HCC-2998): 1.34%
inhibition at 10 µM (OVCAR-5): -0.5%
inhibition at 10 µM (SF-268): 1.06%
inhibition at 10 µM (HCT-116): 3.2%

COc1cc(C=NNc2ncnc3c2c(C)nn3-c2ccc(F)cc2)ccc1O [Compound 10b, 1–(4-Fluorophenyl)-4–(2-(4-hydroxy-3-methoxybenzylidene)-hydrazinyl)-3-methyl-1H-pyrazolo[3,4-d]pyrimidine]
inhibition at 10 µM (NCI-H23): 9.39%
inhibition at 10 µM (HS 578T): 0.89%
inhibition at 10 µM (OVCAR-4): 9.65%
inhibition at 10 µM (RPMI-8226): 7.52%
inhibition at 10 µM (SF-295): -5.51%
inhibition at 10 µM (M14): -2.1%
inhibition at 10 µM (A549/ATCC): 2.36%
inhibition at 10 µM (MCF7): 14.7%
inhibition at 10 µM (PC-3): 27%
inhibition at 10 µM (HCT-15): 18.9%
inhibition at 10 µM (HL-60(TB)): 1.69%
inhibition at 10 µM (MALME-3M): -12.4%
inhibition at 10 µM (SK-MEL-2): 10.2%
inhibition at 10 µM (COLO 205): -4.39%
inhibition at 10 µM (SNB-19): 6.67%
inhibition at 10 µM (ACHN): 7.34%
inhibition at 10 µM (CCRF-CEM): 38%
inhibition at 10 µM (HCC-2998): 0.27%
inhibition at 10 µM (OVCAR-5): -30.9%
inhibition at 10 µM (SF-268): 29%
inhibition at 10 µM (HCT-116): -4.51%
